The results in this text go back to article PMC6887723, “Design and Synthesis of 4-(Heterocyclic Substituted Amino)-1H-Pyrazole-3-Carboxamide Derivatives and Their Potent Activity against Acute Myeloid Leukemia (AML)” (International Journal of Molecular Sciences, 2019).

Structures are written as SMILES.

In one assay the target is T1, CDK2 (Homo sapiens, UniProt P24941).
T1 construct: purchased Reaction Biology Corp
In words: CDK2 kinase activity assay (Hot-Spot). The conditions noted are these: 10 μM ATP; mean ± SD, three independent experiments. It counts as biochemical. As for the experimental part: (§1) Activities of kinases were determined using Hot-SpotSM kinase assay which was performed by Reaction Biology Corp. (Malvern PA, USA) as described previously.

The target of the next assay is T2, CDK4 (Homo sapiens, UniProt P11802).
T2 construct: purchased Reaction Biology Corp
Description: CDK4 kinase activity assay (Hot-Spot). It is filed as biochemical. The conditions noted are these: 10 μM ATP; mean ± SD, three independent experiments. As for the experimental part:
as §1

The next assay relates to MV4-11. Description: Cell growth inhibition assay (CellTiter-Glo). It is filed as cell-based. The conditions noted are these: Homo sapiens, 72 h, highest test concentration 1 μM, mean ± SD, three independent experiments. As for the experimental part:
The human AML cell line MV4-11 was purchased from the American Type Culture Collection (ATCC) (Manassas, VA, USA). MV4-11 was cultured in IMDM media (Corning, Crown Bioscience Inc., Taicang, China) with 10% FBS and supplemented with 2% L-glutamine and 1% pen/strep. The MV4-11 cell line was maintained in culture media at 37 °C with 5% CO2. The effects of target compounds on MV4-11 proliferation was performed by Crown Bioscience Inc. Cells were grown in 96-well culture plates (10,000/well). The compounds of various concentrations were added into the plates. Cell proliferation was determined after treatment with compounds for 72 h. Cell viability was measured using the CellTiter-Glo assay (Promega, Crown Bioscience Inc., Taicang, China) according to the manufacturer’s instructions, and luminescence was measured in a multilabel reader (Envision2014, PerkinElmer, Crown Bioscience Inc., Taicang, China). Data were normalized to the control group (DMSO) and represented by the mean of three independent measurements with standard error of <20%. IC50 values were calculated using Prism 5.0 (GraphPad Software, San Diego, CA, USA).

The next assay concerns the target T3, PDGFRa (Homo sapiens, UniProt P16234).
T3 construct: purchased Reaction Biology Corp. (Malvern PA, USA)
Description: Hot-Spot kinase profiling. It is filed as biochemical. The conditions noted are these: read-out: % Enzyme Activity (Relative to DMSO Controls) PDGFRa. As for the experimental part:
as §1

The target in assay [1] is T4, FLT3 (Homo sapiens, UniProt P36888).
T4 construct: purchased Reaction Biology Corp
T4 sequence (P36888 27-993): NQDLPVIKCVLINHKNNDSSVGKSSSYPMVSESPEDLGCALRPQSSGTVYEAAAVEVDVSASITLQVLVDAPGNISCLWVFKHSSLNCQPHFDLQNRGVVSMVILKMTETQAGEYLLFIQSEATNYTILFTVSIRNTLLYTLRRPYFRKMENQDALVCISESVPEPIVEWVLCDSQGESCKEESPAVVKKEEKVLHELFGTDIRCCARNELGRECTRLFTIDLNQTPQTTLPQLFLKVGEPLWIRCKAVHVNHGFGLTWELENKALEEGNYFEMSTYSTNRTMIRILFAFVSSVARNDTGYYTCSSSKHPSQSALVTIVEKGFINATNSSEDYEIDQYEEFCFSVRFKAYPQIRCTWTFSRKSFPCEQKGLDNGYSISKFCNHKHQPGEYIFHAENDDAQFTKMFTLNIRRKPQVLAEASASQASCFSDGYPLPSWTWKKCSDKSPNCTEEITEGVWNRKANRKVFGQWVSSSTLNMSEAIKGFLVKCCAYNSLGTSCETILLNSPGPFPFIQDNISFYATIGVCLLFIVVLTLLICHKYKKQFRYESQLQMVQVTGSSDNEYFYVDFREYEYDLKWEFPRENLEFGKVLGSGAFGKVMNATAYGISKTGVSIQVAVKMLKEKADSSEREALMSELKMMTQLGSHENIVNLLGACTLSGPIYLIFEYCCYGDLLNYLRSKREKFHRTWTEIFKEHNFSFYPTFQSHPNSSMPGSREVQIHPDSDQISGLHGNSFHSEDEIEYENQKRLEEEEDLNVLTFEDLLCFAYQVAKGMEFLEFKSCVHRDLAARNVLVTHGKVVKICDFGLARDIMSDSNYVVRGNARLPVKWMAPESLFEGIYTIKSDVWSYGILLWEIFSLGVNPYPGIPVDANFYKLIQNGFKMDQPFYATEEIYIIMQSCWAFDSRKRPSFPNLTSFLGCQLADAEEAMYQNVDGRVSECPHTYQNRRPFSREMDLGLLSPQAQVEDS
Description: Hot-Spot kinase profiling. It is filed as biochemical. As for the experimental part:
as §1

Assay [2] concerns the target T4, FLT3. Description: FLT3 kinase activity assay (Hot-Spot). It counts as biochemical. The conditions noted are these: 10 μM ATP; mean ± SD, three independent experiments. As for the experimental part:
as §1

A further assay concerns the target FLT3 mutants. Description: Hot-Spot kinase profiling, FLT3 mutants together. It counts as biochemical. Conditions: eight FLT3 mutants, bound for all; read-out: IC50 against FLT3 mutants. As for the experimental part:
as §1

For the next assay, the system named is BaF3 (FLT3 (ITD-F691L)). In words: Antiproliferative activity in BaF3 cells transformed with FLT3-ITD-F691L. Conditions: Mus musculus, Table S2. It is filed as cell-based.
The subject of assay [3] is phosphorylation of the FLT3. Description: Western blot, phosphorylation of FLT3 in MV4-11 cells. It counts as cell-based, human. Conditions: MV4-11, 4 h, 1 μM; dose-dependent, more potent than sorafenib. As for the experimental part: Analysis of pFLT3, pSTAT5, pERK, pAKT, and pRb in vitro: to determine the levels of pFLT3, pSTAT5, pERK, pAKT, and pRb, cells were seeded in a 6-well cell culture plate at a density of 400,000 cells per well for MV4-11 in a total volume of 1800 μL and incubated overnight in medium containing 10% fetal bovine serum (Life Technologies, Rockville, MD, USA). Then 200 μL of serially diluted compounds were added to each well the next day. Cell lysates were harvested after 4 h and pFLT3, pSTAT5, pERK, pAKT, or pRb were quantified using assay kits for FLT3/Phospho-FLT3Tyr589/591, pSTAT5 (Tyr694)/total STAT5, pRb (Ser807)/total Rb (Nanjin keyGen Biotech Company, Nanjing, China) following the manufacturer’s protocols.

In the next assay the test system is MV4-11 cells. In words: Cell apoptosis assay (Annexin V-FITC/PI, flow cytometry). Conditions: MV4-11, 2 μM, 24 h. It counts as cell-based, human. As for the experimental part:
The apoptosis of MV4-11 cells was determined by Annexin V-FITC/PI assay. Annexin V binds to phosphatidylserine, which is exposed on the cell membrane and is one of the earliest indicators of cellular apoptosis. PI (Propidium Iodide) is used as a DNA stain for both flow cytometry to evaluate cell viability or DNA content in cell cycle analysis and microscopy to visualize the nucleus and other DNA containing organelles. It can be used to differentiate necrotic, apoptotic, and normal cells. Cells (2 × 10^5) were seeded in 6-well plate and were treated with varying concentrations of inhibitor for 24 h. MV4-11 cells were collected and incubated with FITC-conjugated Annexin V (Nanjing keyGen Biotech Company, Nanjing, China). The nuclei were then counterstained with PI. After the dual staining, the cells were screened by a FAC Scan flow cytometer (FACS Calibun, Becton Dickinson, Nanjing, China). The upper left corner of the quadrant represents debris, lower left are live cells, upper right are advanced apoptotic or necrotic cells and lower right are apoptotic cells.

T2 sequence (P11802 whole entry): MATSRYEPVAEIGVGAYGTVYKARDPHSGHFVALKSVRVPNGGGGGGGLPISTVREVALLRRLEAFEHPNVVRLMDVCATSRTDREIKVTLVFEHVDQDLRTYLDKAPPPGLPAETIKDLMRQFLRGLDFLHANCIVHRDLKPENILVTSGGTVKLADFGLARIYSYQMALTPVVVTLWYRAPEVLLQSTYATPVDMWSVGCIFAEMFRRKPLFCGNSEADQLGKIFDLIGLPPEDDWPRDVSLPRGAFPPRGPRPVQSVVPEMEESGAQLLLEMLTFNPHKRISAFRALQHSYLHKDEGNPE
T2 sequence (P24385 whole entry partner): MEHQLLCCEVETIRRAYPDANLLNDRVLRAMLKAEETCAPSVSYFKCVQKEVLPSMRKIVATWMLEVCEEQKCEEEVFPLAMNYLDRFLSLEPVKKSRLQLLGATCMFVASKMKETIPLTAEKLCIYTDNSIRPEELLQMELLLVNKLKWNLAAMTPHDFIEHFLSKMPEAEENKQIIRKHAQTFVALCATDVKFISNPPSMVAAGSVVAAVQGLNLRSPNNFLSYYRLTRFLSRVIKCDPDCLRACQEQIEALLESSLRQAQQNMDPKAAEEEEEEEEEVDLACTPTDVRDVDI
T3 sequence (P16234 24-1089): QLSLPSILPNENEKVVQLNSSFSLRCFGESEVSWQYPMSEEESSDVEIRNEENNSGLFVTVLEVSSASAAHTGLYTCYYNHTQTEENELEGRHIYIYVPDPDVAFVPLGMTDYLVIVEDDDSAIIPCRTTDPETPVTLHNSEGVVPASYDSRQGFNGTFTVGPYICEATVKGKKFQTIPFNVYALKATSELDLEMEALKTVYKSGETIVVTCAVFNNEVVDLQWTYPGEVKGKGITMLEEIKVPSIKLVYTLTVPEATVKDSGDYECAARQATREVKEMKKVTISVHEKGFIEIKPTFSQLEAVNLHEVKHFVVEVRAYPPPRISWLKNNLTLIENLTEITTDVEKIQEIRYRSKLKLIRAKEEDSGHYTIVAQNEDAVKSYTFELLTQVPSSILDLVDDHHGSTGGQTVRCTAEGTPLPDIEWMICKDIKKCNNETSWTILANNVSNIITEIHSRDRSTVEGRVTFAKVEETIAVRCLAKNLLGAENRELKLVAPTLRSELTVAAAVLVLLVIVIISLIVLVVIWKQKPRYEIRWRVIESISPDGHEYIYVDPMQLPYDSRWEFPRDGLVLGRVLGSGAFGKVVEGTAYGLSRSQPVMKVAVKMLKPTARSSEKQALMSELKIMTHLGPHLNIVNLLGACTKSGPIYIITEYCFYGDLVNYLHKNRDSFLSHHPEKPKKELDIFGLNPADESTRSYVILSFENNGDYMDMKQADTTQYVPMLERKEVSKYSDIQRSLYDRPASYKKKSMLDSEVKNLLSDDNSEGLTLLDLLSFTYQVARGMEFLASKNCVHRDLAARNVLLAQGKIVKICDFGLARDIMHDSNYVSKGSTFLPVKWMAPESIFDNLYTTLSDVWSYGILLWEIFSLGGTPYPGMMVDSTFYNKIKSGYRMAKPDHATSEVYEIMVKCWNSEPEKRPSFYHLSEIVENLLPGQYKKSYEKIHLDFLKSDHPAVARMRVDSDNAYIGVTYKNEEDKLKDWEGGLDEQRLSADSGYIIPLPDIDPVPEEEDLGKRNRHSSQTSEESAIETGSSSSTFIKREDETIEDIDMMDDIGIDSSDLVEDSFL

A word on the IC50: it is the concentration that inhibits the measured activity by half. Take `O=C(Nc1ccc(N2CCNCC2)cc1)c1n[nH]cc1Nc1ncnc2sc3c(c12)CCC3` [Compound 8t]: the IC50 at CDK2 was 0.719 ± 0.064 nM; against CDK4, 0.77 ± 0.007 nM; in the assay on MV4-11, 1.22 ± 0.06 nM; on FLT3 [1] (Table 5 kinase profiling), 0.035 ± 0.01 nM; against FLT3 [2], 0.089 ± 0.013 nM; at FLT3 mutants, less than 5 nM. The IC50 with BaF3 (FLT3 (ITD-F691L)) was 21.9 nM. The remaining activity at 0.15 µM amounted to 82.8% on PDGFRa and 0.01% on FLT3 [1] (0.15 μM, read-out: % Enzyme Activity (Relative to DMSO Controls) FLT3). Also, the “phosphorylation of the FLT3” value in [3] was “eliminated”. For the same compound, the apoptosis rate in the assay on MV4-11 cells was found to be 51.36%.
